In ChEMBL document CHEMBL1152690, “The spirocyclopropyl moiety as a methyl surrogate in the structure of l-fucosidase and l-rhamnosidase inhibitors” (Bioorg Med Chem, 2009):
Activity calls are given as the source filed them. The rule behind the calls is not given here.

Columns and labels:
[1] = Inhibition of Penicillium decumbens Alpha-L-rhamnosidase by para-nitrophenolate release assay
[2] = target: T1, Tissue alpha-L-fucosidase (Bos taurus) (UniProt Q2KIM0); test: Inhibition of bovine kidney alpha-L-fucosidase at 1 mM by para-nitrophenolate release assay
T1 sequence (whole entry): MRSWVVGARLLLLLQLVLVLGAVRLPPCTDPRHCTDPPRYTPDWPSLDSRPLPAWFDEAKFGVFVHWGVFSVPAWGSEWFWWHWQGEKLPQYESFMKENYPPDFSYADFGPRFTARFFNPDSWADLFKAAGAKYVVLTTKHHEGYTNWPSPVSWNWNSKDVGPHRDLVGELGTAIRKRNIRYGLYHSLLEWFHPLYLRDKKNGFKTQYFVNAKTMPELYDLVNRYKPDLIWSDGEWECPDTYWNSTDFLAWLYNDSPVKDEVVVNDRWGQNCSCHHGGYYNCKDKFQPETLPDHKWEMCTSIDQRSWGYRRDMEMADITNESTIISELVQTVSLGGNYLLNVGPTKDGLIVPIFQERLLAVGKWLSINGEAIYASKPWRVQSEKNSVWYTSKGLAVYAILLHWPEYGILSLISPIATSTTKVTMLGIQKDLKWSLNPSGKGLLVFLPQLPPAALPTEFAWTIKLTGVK

[3] = target: T2, Tissue alpha-L-fucosidase (Bos taurus, UniProt Q2KIM0); test: Inhibition of bovine kidney alpha-L-fucosidase by para-nitrophenolate release assay
T2 sequence (Q2KIM0 whole entry): T1 sequence (whole entry)

[4] = tested on: Penicillium decumbens; test: Inhibition of Penicillium decumbens lysosomal Alpha-L-rhamnosidase at 1 mM by para-nitrophenolate release assay
[5] = tested on: Penicillium decumbens; test: Inhibition of Penicillium decumbens Alpha-L-rhamnosidase at 1 mM by para-nitrophenolate release assay
[6] = target: T1, Tissue alpha-L-fucosidase (Bos taurus); conditions: 1 mM
Description: Inhibition of bovine lysosomal alpha-L-fucosidase at 1 mM by para-nitrophenolate release assay

[7] = tested on: Aspergillus niger; test: Inhibition of Aspergillus niger amyloglucosidase at 1 mM
[8] = tested on: Oryza sativa; test: Inhibition of rice alpha-glucosidase at 1 mM
[9] = target: Beta-galactosidase (Escherichia coli) (UniProt Q8VNN2); test: Inhibition of Escherichia coli beta-galactosidase at 1 mM
Beta-galactosidase (Escherichia coli), sequence (Q8VNN2 whole entry, looked up): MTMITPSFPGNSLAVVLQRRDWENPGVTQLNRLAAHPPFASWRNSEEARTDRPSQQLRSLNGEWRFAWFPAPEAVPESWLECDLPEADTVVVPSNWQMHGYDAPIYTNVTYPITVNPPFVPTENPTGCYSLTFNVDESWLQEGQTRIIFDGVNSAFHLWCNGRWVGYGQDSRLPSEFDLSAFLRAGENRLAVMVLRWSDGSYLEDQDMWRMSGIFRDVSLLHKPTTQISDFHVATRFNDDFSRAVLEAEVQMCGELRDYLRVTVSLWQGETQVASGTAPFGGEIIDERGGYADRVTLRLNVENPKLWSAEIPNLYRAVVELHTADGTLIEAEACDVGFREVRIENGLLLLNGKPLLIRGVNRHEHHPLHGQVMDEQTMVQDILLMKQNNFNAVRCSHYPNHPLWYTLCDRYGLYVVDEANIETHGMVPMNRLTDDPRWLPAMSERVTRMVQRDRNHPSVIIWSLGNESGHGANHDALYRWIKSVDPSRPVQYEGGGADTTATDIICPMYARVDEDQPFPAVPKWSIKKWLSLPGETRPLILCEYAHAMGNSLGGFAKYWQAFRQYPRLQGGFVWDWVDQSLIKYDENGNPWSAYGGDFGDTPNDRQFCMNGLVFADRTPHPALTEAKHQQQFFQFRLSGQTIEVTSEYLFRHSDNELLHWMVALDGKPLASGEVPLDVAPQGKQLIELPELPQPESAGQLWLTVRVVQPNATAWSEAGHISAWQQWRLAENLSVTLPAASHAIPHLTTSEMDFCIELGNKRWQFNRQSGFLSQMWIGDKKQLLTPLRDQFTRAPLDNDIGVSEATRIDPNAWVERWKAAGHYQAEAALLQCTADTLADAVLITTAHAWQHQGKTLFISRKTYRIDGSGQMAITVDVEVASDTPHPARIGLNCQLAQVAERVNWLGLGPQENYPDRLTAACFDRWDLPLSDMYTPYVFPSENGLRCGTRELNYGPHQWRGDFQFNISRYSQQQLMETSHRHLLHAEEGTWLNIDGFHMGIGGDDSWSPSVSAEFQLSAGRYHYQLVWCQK

[10] = tested on: Helix pomatia; test: Inhibition of snail beta-mannosidase at 1 mM
[11] = tested on: Coffea arabica; test: Inhibition of coffee bean alpha-galactosidase at 1 mM
[12] = tested on: Canavalia ensiformis; test: Inhibition of jack bean beta-N-acetylglucosaminidase at 1 mM
[13] = tested on: Saccharomyces cerevisiae; test: Inhibition of yeast alpha-glucosidase at 1 mM
[14] = tested on: Prunus dulcis; test: Inhibition of almond beta-glucosidase at 1 mM
[15] = target: T3, Beta-galactosidase (Aspergillus oryzae) (UniProt Q2U7N3); test: Inhibition of Aspergillus oryzae beta-galactosidase at 1 mM
T3 sequence (whole entry): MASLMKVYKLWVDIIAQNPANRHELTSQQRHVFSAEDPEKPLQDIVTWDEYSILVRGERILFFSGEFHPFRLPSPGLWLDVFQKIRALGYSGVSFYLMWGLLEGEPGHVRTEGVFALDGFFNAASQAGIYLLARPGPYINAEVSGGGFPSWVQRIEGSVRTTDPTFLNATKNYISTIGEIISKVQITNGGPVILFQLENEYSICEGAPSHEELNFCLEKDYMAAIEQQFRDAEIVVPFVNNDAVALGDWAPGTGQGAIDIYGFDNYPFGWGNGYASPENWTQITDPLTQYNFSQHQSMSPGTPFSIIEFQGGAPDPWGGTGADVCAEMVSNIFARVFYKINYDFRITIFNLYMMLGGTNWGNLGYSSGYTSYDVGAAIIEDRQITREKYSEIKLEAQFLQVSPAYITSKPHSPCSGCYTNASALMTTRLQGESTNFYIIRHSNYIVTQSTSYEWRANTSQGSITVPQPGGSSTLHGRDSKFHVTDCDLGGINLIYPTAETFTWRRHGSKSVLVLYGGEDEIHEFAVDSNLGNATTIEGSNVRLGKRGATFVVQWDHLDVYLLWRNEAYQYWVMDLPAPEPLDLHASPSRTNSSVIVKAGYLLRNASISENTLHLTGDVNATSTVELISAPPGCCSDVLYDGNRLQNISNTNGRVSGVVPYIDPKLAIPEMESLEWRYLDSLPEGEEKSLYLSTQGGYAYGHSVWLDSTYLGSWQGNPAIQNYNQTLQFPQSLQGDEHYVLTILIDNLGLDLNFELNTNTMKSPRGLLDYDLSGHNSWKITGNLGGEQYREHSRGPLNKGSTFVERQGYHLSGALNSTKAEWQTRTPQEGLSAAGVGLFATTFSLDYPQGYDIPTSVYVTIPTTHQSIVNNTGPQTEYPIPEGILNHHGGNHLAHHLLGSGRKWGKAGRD

[16] = tested on: Canavalia ensiformis; test: Inhibition of jack bean alpha-mannosidase at 1 mM
[17] = tested on: Aspergillus niger; test: Inhibition of Aspergillus niger beta-xylosidase at 1 mM
[18] = species on record: Bos taurus; test: Inhibition of bovine kidney beta-N-acetylglucosaminidase at 1 mM

Compound	Ki [1]	inhibition [2]	Ki [3]	inhibition [5]	inhibition [7]	inhibition [8]	inhibition [9]	inhibition [10]	inhibition [11]	inhibition [12]	inhibition [13]	inhibition [14]	inhibition [15]	inhibition [16]	inhibition [17]	inhibition [18]	other results
COc1ccc(C[C@@H]2NC[C@@H](O)[C@H]2O)cc1	3200 nM																
C[C@@H]1N=C[C@H](O)[C@H]1O	140 nM																
COc1ccc(C[C@@H]2NC[C@H](O)[C@H]2O)cc1	3000 nM																
C[C@@H]1N[C@@H](O)[C@@H](O)[C@H](O)[C@@H]1O			1 nM														
C[C@@H]1N=C[C@H](O)[C@@H]1O			10 nM														
C[C@@H]1C[C@H](O)C2[C@@H](O)[C@@H](O)CN2C1 (single isomer, unassigned)	30 nM																
C[C@@H]1NC[C@H](O)[C@H]1O	5500 nM																

Second part, led by results:

Ki [1]	inhibition [2]	Ki [3]	inhibition [5]	inhibition [7]	inhibition [8]	inhibition [9]	inhibition [10]	inhibition [11]	inhibition [12]	inhibition [13]	inhibition [14]	inhibition [15]	inhibition [16]	inhibition [17]	inhibition [18]	Compound	other results
1000 nM	99%	1000 nM														C[C@H]1NC[C@H](O)[C@H](O)[C@H]1O	
			0%													C[C@@H]1NC[C@H](O)[C@H](O)[C@H]1O	inhibition [4]: inactive; inhibition [6]: inactive
	inactive		72%	inactive	inactive	inactive	inactive	inactive	inactive	inactive	inactive	inactive	inactive	inactive	inactive	O[C@@H]1[C@@H](O)C2(CC2)NC[C@@H]1O	
57000 nM	76%		87%	inactive	inactive	inactive	inactive	inactive	inactive	inactive	inactive	inactive	inactive	inactive	inactive	O[C@H]1C=NC2(CC2)[C@H]1O	
	83%	18000 nM	inactive	inactive	inactive	inactive	inactive	inactive	inactive	inactive	inactive	inactive	inactive	inactive	inactive	O[C@H]1[C@H](O)CNC2(CC2)[C@H]1O	
	19%		72%	inactive	inactive	inactive	inactive	inactive	inactive	inactive	inactive	inactive	inactive	inactive	inactive	O[C@@H]1[C@@H](O)C=NC12CC2	
